IC50 data for nine compounds are collected here from patent publication US8034810B2, “Arylsulfonamido-substituted hydroxamic acid derivatives” (Novartis AG, priority 1999, dated 2011).

Structures can show the parent of a compound that is named as a salt.

In the assay the target is T1, MMP9 (Homo sapiens, UniProt P14780).
T1 construct: endogenous in cells; host or cells: THP1 human monocytic leukemia cells, TPA-stimulated; enzyme purified from culture medium
T1 sequence (P14780 107-707 limits assumed): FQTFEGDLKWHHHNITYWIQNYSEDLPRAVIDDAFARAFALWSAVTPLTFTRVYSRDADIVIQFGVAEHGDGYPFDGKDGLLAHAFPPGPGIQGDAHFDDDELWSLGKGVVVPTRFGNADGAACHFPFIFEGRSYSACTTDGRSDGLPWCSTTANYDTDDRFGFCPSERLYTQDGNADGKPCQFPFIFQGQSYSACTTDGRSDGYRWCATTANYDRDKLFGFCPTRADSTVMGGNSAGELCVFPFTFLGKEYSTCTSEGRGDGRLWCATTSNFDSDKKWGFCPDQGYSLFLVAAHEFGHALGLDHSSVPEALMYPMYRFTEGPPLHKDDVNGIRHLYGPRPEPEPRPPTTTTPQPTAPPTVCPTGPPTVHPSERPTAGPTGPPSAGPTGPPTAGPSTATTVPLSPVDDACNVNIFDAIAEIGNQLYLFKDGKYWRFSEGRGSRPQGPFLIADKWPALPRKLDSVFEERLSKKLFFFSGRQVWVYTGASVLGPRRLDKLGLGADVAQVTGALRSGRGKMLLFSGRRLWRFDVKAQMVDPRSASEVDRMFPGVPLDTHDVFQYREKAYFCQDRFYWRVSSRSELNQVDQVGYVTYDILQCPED
The assay can be described thus: Assay of MMP9, fluorogenic peptide substrate. Type of assay: biochemical. Particulars: activated MMP9 from THP1 cells, 0.5 nM; substrate 25 μM. The method, then: MMP9 is prepared form the culture medium of THP1 human monocytic leukemia cells treated with TPA. THP1 cells are maintained in a culture of DMEM/F-12 with 10% FCS and stimulated to produce pro-MMP9 with TPA (1 nM) in serum-free medium for 48 h. All purification procedures are carried out at 4° C. The 1 liters of culture medium is concentrated to 100 ml by Centricon (Amicon) and applied to a column (1×8 cm) of gelatin-sepharose (Pharmacia) equilibrated with 50 mM Tris-Cl (pH=8.0), 300 mM NaCl. The fraction containing pro-MMP-9 is eluted with 10% DMSO in 50 mM Tris-Cl (pH=8.0), 300 mM NaCl, then dialyzed against 50 mM Tris-Cl (pH 7.5), 150 mM NaCl. The fraction is concentrated by Centricon and subjected to column chromatography of Sephadex G200 (2×20 cm) equilibrated with 50 mM Tris-Cl (pH=7.5) containing 150 mM NaCl. The purified Pro-MMP9 is stored at −80° C. as a stock and the necessary amount of pro-form is used for activation. Pro-MMP9 is activated with 1 mM aminophenyl mercury acetate (APMA, ICN Pharmaceuticals) in 50 mM Tris-Cl (pH=7.5) containing 150 mM NaCl, 10 mM CaCl2 and 0.05% Brij-35 (MMP Assay Buffer) for 18 h at 37° C., and the APMA is removed by extensive dialysis against MMP Assay Buffer. The activated MMP9 is stored frozen at −80° C. until use.
The activated MMP-9 (82 kDa) is then used to screen compounds. A fluorogenic peptide, 2-N-methylaminobenzoic acid (Nma)-Gly-Pro-Gln-Gly-Leu-Ala-Gly-Gln-Lys-N^ε-(2,4-dinitrophenyl)(Dnp)-NH2 (Peptide Institute, Osaka, Japan) is used as the only substrate in all MMPs assay in this study at 25 μM. Stock solutions of the substrate are prepared in 100% DMSO at a concentration 1.0 mM. Assays are performed in MMP Assay Buffer. The reaction mixture is added in duplicate to appropriate wells of a 96 well microfluor plate and preincubated at 37° for 30 min. The reaction is started by the addition of 0.5 nM of activated MMP9. Stock solutions of each inhibitor are prepared by dissolving in 100% DMSO. Inhibitors are added into the assay mixture from the diluted solution with 100% DMSO prepared from the stock solutions. An equal volume of DMSO is added to controls. The final concentration of DMSO from inhibitor and substrate solutions is 5.0%. The increase of fluorescence is monitored at 460 nm with excitation at 355 nm. A time point on a linear part of the curve is chosen to determine the activity. The inhibition results are expressed as the inhibitor concentration that produce 50% inhibition (IC50) of the activity in the control reaction.
Usually IC50 stands for the concentration at which inhibition is half-maximal. “2-[(Cyclopropylmethoxy-benzenesulfonyl)-(4-[1,2,4]triazol-1-yl-benzyl)-amino]-N-hydroxyacetamide-hydrochloride salt [Example 82b]” displayed an IC50 of 10.6 nM.

`O=C(CN(Cc1ccc(-n2cncn2)cc1)S(=O)(=O)c1ccc(OCc2ccoc2)cc1)NO` [Example 82c] yielded a 50% inhibitory concentration (IC50) of 7.4 nM.

`C=CCCOc1ccc(S(=O)(=O)N(CC(=O)NO)Cc2ccc(-n3ccnc3)cc2)cc1` [Example 80, 2-[(4-But-3-enyloxy-benzenesulfonyl)-(4-imidazol-1-yl-benzyl)-amino]-N-hydroxy-acetamide-hydrochloride] returned a half-inhibitory concentration (IC50) of 3.7 nM.

Compound `C=CCCOc1ccc(S(=O)(=O)N(CC(=O)NO)Cc2ccc(N3CCOCC3)cc2)cc1` [Example 81, 2-[(4-But-3-enyloxy-benzenesulfonyl)-(4-morpholin-4-yl-benzyl)-amino]-N-hydroxy-acetamide-hydrochloride] showed an IC50 of 6.3 nM.

Compound `O=C(CN(Cc1ccc(-n2cncn2)cc1)S(=O)(=O)c1ccc(OCCC2CC2)cc1)NO` [Example 82a] returned a half-maximal inhibitory concentration (IC50) of 17 nM.

On to `C=CCCOc1ccc(S(=O)(=O)N(CC(=O)NO)Cc2ccc(N3CCCC3)cc2)cc1` [Example 84a, 2-[(4-But-3-enyloxy-benzenesulfonyl)-(4-(pyrrolidin-1-yl)-benzyl)-amino]-N-hydroxyacetamide-hydrochloride], for which half-maximal inhibition (IC50) was put at 19.8 nM. This IC50 and that of the compound before are within 1.5-fold of each other.

Regarding `COc1ccc(CN(CC(=O)NO)S(=O)(=O)c2ccc(OCCCCl)cc2)cc1` [Example 68, 2-{[4-(3-chloro-propoxy)-benzenesulfonyl]-(4-methoxy-benzyl)amino}-N-hydroxy-acetamide], the concentration for half-maximal inhibition (IC50) worked out at 1.2 nM.

Take `C=CCCOc1ccc(S(=O)(=O)N(CC(=O)NO)Cc2cccc(F)n2)cc1` [Example 83a, 2-([4-But-3-enyloxy-benzenesulfonyl]-(6-fluoro-pyridine-2-yl)methyl-amino)-N-hydroxyacetamide]: the 50% inhibitory concentration (IC50) worked out at 5.6 nM. Compared with the last compound, the IC50 is about 4.7-fold higher.

Consider `C=CCCOc1ccc(S(=O)(=O)N(CC(=O)NO)Cc2ccc(-n3cncn3)cc2)cc1` [Example 79, 2-[(4-but-3-enyloxy-benzenesulfonyl)-(4-[1,2,4]triazol-1-yl-benzyl)-amino]-N-hydroxy-acetamide-hydrochloride salt], for which the IC50 stood at 0.2 nM.
